The record followed here is US11679159B2, “Compositions for transfecting resistant cell types” (Precision Nanosystems ULC, priority 2018, dated 2023).

For the test, the system named is NPC. Nature of the test: GFP levels in NPC measured by flow cytometry, KC2 and DLin-MC3-DMA substituted as ionizable lipid. The format is cell-based, human. The conditions noted are these: 48 H, ionizable lipid in the Lipid Mix K, over the control Lipid Mix A (FIG. 11). The text has this:
Two commonly used ionizable lipids, KC2 and DLin-MC3-DMA, were substituted for the ionizable lipid component for Lipid Mixes A and K. NPC were transfected as specified above, and the results at 48 H for GFP Median Fluorescent Intensity via flow cytometry are shown in FIG. 11. Both KC2 and DLin-MC3-DMA (MC3 in the graph) were effective in the Lipid Mix K to enhance GFP expression over the control Lipid Mix A. PNI-IL-1 is 1,17-bis(2-octylcyclopropyl)heptadecan-9-yl 4-(dimethylamino)butanoate HCl).

`CCCCCC=CCC=CCCCCCCCCC(CCCCCCCCC=CCC=CCCCCC)OC(=O)CCCN(C)C` (centres unmarked) [DLin-MC3-DMA, heptatriaconta-6,9,28,31-tetraen-19-yl 4-(dimethylamino)butanoate]: the “GFP Median Fluorescent Intensity via flow cytometry” value is “effective”.
In the case of `CCCCC/C=C\C/C=C\CCCCCCCCC1(CCCCCCCC/C=C\C/C=C\CCCCC)OCC(CCN(C)C)O1` (centres unmarked) [KC2, 2,2-dilinoleyl-4-(2-dimethylaminoethyl)-[1,3]-dioxolane] it was “effective”.
